In the NIST ThermoML archive (doi:10.1021/je501106d):
Numbers after ± are expanded uncertainties.

Conditions: for speed of sound: Brillouin scattering; for vapor or sublimation pressure: Closed cell (Static) method

CCCCCC [hexane]
speed of sound [m/s], Liquid
Conditions	1000 kPa	2500 kPa	4000 kPa	5500 kPa	7000 kPa	7500 kPa	8500 kPa
300.15 K	1080 ± 35	1090 ± 35	1102 ± 35	1115 ± 36	1129 ± 36	–	1140 ± 37
313.15 K	1027 ± 33	1038 ± 33	1049 ± 34	1062 ± 34	1077 ± 34	–	1092 ± 35
328.15 K	964.1 ± 31	975.9 ± 31	988.6 ± 32	1002 ± 32	1017 ± 33	–	1032 ± 33
343.15 K	900.3 ± 29	913.8 ± 29	927.8 ± 30	942.3 ± 30	957.3 ± 31	–	972.8 ± 31
353.15 K	857 ± 27	872 ± 28	887.1 ± 28	902.5 ± 29	918.1 ± 29	–	934 ± 30
363.15 K	813.22 ± 26	829.9 ± 27	846.4 ± 27	862.9 ± 28	879.3 ± 28	–	895.7 ± 29
373.15 K	768.8 ± 25	787.4 ± 25	805.6 ± 26	823.4 ± 26	840.9 ± 27	–	857.9 ± 28
383.15 K	723.8 ± 23	744.7 ± 24	764.8 ± 24	784.1 ± 25	802.8 ± 26	–	820.7 ± 26
393.15 K	678.3 ± 22	701.6 ± 22	723.8 ± 23	744.9 ± 24	765 ± 24	–	783.9 ± 25
403.15 K	632.1 ± 20	658.2 ± 21	682.8 ± 22	705.9 ± 23	727.5 ± 23	–	747.7 ± 24
413.15 K	585.4 ± 19	614.5 ± 20	641.7 ± 21	667 ± 21	690.4 ± 22	–	711.9 ± 23
423.15 K	538.1 ± 17	570.5 ± 18	600.6 ± 19	628.3 ± 20	653.7 ± 21	–	676.7 ± 22
433.15 K	490.1 ± 16	526.2 ± 17	559.3 ± 18	589.7 ± 19	–	617.3 ± 20	642 ± 21
443.15 K	–	481.5 ± 16	518 ± 17	551.3 ± 18	581.2 ± 19	–	607.8 ± 20
448.15 K	–	459.1 ± 15	497.4 ± 16	532.1 ± 17	563.3 ± 18	–	590.9 ± 19
453.15 K	–	436.6 ± 14	476.7 ± 15	513 ± 16	545.4 ± 18	–	574.1 ± 18
458.15 K	–	414 ± 13	456 ± 15	493.9 ± 16	527.7 ± 17	–	557.4 ± 18
463.15 K	–	391.3 ± 13	435.2 ± 14	474.8 ± 15	510.1 ± 16	–	540.9 ± 17
468.15 K	–	368.5 ± 12	414.5 ± 13	455.8 ± 15	492.5 ± 16	–	524.5 ± 17
473.15 K	–	345.7 ± 11	393.7 ± 13	436.8 ± 14	475 ± 15	–	508.2 ± 16
478.15 K	–	322.8 ± 10	372.9 ± 12	417.9 ± 14	457.6 ± 15	–	492.1 ± 16
483.15 K	–	–	352.1 ± 11	399 ± 13	440.3 ± 14	–	476.1 ± 15
488.15 K	–	–	331.3 ± 11	380.1 ± 12	–	–	–
493.15 K	–	–	310.5 ± 10	361.3 ± 12	–	–	–
498.15 K	–	–	289.6 ± 9.4	342.5 ± 11	–	–	–
503.15 K	–	–	268.8 ± 8.7	323.7 ± 11	–	–	–
506.15 K	–	–	256.2 ± 8.3	312.5 ± 10	–	–	–

Conditions	speed of sound, Gas [m/s]	speed of sound, Liquid [m/s]	vapor or sublimation pressure, Liquid [kPa]
300.15 K	–	1073 ± 34	14
313.15 K	–	993 ± 32	63 ± 30
328.15 K	–	926.8 ± 30	94 ± 30
343.15 K	–	882.7 ± 28	122 ± 30
353.15 K	–	838.8 ± 27	161 ± 30
363.15 K	–	794.9 ± 26	214 ± 30
373.15 K	–	751 ± 24	260 ± 30
383.15 K	178.6 ± 5.8	707.2 ± 23	331 ± 30
393.15 K	176.6 ± 5.7	663.4 ± 21	413 ± 30
403.15 K	174.3 ± 5.7	619.5 ± 20	512 ± 30
413.15 K	171.6 ± 5.6	575.6 ± 18	627 ± 30
423.15 K	168.3 ± 5.5	531.6 ± 17	762 ± 30
433.15 K	164.2 ± 5.3	487.5 ± 16	924 ± 30
443.15 K	159.4 ± 5.2	443.1 ± 14	1113 ± 30
448.15 K	156.6 ± 5.1	420.7 ± 14	1210 ± 30
453.15 K	153.5 ± 5	398.2 ± 13	1322 ± 30
458.15 K	150.1 ± 4.9	375.6 ± 12	1447 ± 30
463.15 K	146.4 ± 4.8	352.8 ± 11	1563 ± 30
468.15 K	142.2 ± 4.7	329.8 ± 11	1700 ± 30
473.15 K	137.6 ± 4.5	306.4 ± 9.9	1843 ± 30
478.15 K	132.5 ± 4.4	282.6 ± 9.1	1992 ± 30
483.15 K	126.9 ± 4.2	258.2 ± 8.3	2144 ± 30
488.15 K	120.6 ± 4	233 ± 7.5	2313 ± 30
493.15 K	113.4 ± 3.8	206.4 ± 6.7	2491 ± 30
498.15 K	105.3 ± 3.5	177.3 ± 5.8	2677 ± 30
503.15 K	95.91 ± 3.2	142 ± 4.7	2878 ± 30
506.15 K	89.34 ± 3	109.7 ± 3.7	2991 ± 30

Cc1ccccc1 [toluene]
Liquid
Conditions	speed of sound [m/s]
323.15 K	1200.8 ± 38
423.15 K	806 ± 26
523.15 K	425.5 ± 14

CCCCCCC [heptane]
speed of sound [m/s], Liquid
Conditions	1000 kPa	2500 kPa	4000 kPa	5500 kPa	7000 kPa	8500 kPa
302.15 K	1112.9 ± 36	1126.4 ± 36	1139 ± 36	1152 ± 37	1163.2 ± 37	1174.3 ± 38
318.15 K	1054.1 ± 34	1066.6 ± 34	1079 ± 34	1091 ± 35	1102 ± 35	1113 ± 36
333.15 K	997.8 ± 32	1010 ± 32	1022 ± 33	1034 ± 33	1045 ± 34	1057 ± 34
348.15 K	940.3 ± 30	952.9 ± 30	965.3 ± 31	977.6 ± 31	989.7 ± 32	1002 ± 32
363.15 K	881.6 ± 28	895.3 ± 29	908.8 ± 29	922 ± 30	934.9 ± 30	947.6 ± 30
378.15 K	821.8 ± 26	837.2 ± 27	852.2 ± 27	866.8 ± 28	881 ± 28	894.7 ± 29
393.15 K	760.8 ± 24	778.7 ± 25	795.8 ± 26	812.2 ± 26	827.9 ± 26	842.9 ± 27
408.15 K	698.6 ± 22	719.6 ± 23	739.4 ± 24	758.2 ± 24	775.8 ± 25	792.2 ± 25
418.15 K	656.6 ± 21	680 ± 22	701.9 ± 22	722.4 ± 23	741.5 ± 24	759.1 ± 24
428.15 K	614 ± 20	640.1 ± 20	664.4 ± 21	686.9 ± 22	707.6 ± 23	726.4 ± 23
438.15 K	570.9 ± 18	600 ± 19	626.9 ± 20	651.6 ± 21	674 ± 22	694.3 ± 22
448.15 K	527.2 ± 17	559.7 ± 18	589.5 ± 19	616.6 ± 20	640.9 ± 21	662.6 ± 21
453.15 K	505.2 ± 16	539.5 ± 17	570.8 ± 18	599.1 ± 19	624.5 ± 20	647 ± 21
458.15 K	483.1 ± 16	519.2 ± 17	552.1 ± 18	581.7 ± 19	608.2 ± 20	631.4 ± 20
463.15 K	–	498.9 ± 16	533.4 ± 17	564.4 ± 18	592 ± 19	616 ± 20
468.15 K	–	478.5 ± 15	514.7 ± 16	547.2 ± 18	559.8 ± 18	600.8 ± 19
473.15 K	–	458 ± 15	496 ± 16	530 ± 17	543.9 ± 18	570.6 ± 18
478.15 K	–	437.5 ± 14	477.4 ± 15	512 ± 16	528.1 ± 17	555.7 ± 18
483.15 K	–	416.9 ± 13	458.7 ± 15	495.7 ± 16	512.3 ± 16	540.9 ± 17
488.15 K	–	396.3 ± 13	440 ± 14	478.7 ± 15	496.7 ± 16	526.3 ± 17
493.15 K	–	375.7 ± 12	421.4 ± 14	461.7 ± 15	–	–
498.15 K	–	354.9 ± 11	402.8 ± 13	444.8 ± 14	–	–
503.15 K	–	334.2 ± 11	384.1 ± 12	428 ± 14	–	–
508.15 K	–	313.3 ± 10	365.5 ± 12	411.2 ± 13	–	–
513.15 K	–	292.4 ± 9.5	346.9 ± 11	394.5 ± 13	–	–
518.15 K	–	271.5 ± 8.8	328.3 ± 11	377.8 ± 12	–	–
523.15 K	–	–	309.7 ± 10	361.2 ± 12	–	–
528.15 K	–	–	291.1 ± 9.4	344.6 ± 11	–	–

Conditions	speed of sound, Gas [m/s]	speed of sound, Liquid [m/s]	vapor or sublimation pressure, Liquid [kPa]
302.15 K	–	1108 ± 35	12
318.15 K	–	1042 ± 33	31 ± 30
333.15 K	–	981.5 ± 31	50 ± 30
348.15 K	–	921.1 ± 30	84 ± 30
363.15 K	–	861.2 ± 28	116 ± 30
378.15 K	–	801.6 ± 26	152 ± 30
393.15 K	–	742.3 ± 24	204 ± 30
408.15 K	170.3 ± 5.5	683.1 ± 22	286 ± 30
418.15 K	168.1 ± 5.5	643.5 ± 21	352 ± 30
428.15 K	165.9 ± 5.4	603.9 ± 19	441 ± 30
438.15 K	163.4 ± 5.3	564 ± 18	535 ± 30
448.15 K	160.5 ± 5.2	523.9 ± 17	654 ± 30
453.15 K	158.8 ± 5.2	503.6 ± 16	711 ± 30
458.15 K	157 ± 5.1	483.3 ± 16	780 ± 30
463.15 K	155 ± 5.1	462.8 ± 15	853 ± 30
468.15 K	152.8 ± 5	442.2 ± 14	935 ± 30
473.15 K	150.3 ± 4.9	421.3 ± 14	1022 ± 30
478.15 K	147.5 ± 4.8	400.3 ± 13	1114 ± 30
483.15 K	144.5 ± 4.7	379 ± 12	1203 ± 30
488.15 K	141.2 ± 4.6	357.4 ± 12	1307 ± 30
493.15 K	137.5 ± 4.5	335.4 ± 11	1409 ± 30
498.15 K	133.4 ± 4.4	313 ± 10	1532 ± 30
503.15 K	129 ± 4.2	290.1 ± 9.3	1649 ± 30
508.15 K	124.1 ± 4.1	266.6 ± 8.6	1781 ± 30
513.15 K	118.7 ± 3.9	242.4 ± 7.8	1910 ± 30
518.15 K	112.8 ± 3.7	217.3 ± 7	2049 ± 30
523.15 K	106.4 ± 3.5	190.9 ± 6.2	2201 ± 30
528.15 K	99.37 ± 3.3	162.7 ± 5.3	2358 ± 30
533.15 K	91.71 ± 3.1	131.9 ± 4.3	2519 ± 30
536.15 K	86.78 ± 3	111.1 ± 3.7	2630 ± 30
